Measurements published in ChEMBL document CHEMBL3813592, “Discovery of Novel Tricyclic Heterocycles as Potent and Selective DPP-4 Inhibitors for the Treatment of Type 2 Diabetes” (ACS Med Chem Lett, 2016).
Active and inactive are the calls of the source. No cut-off for these calls is given here.

Key:
Mus musculus [1] = assay: Antidiabetic activity in C57BL/6N mouse assessed as reduction in blood glucose AUC at 3 mg/kg, po administered for 60 mins followed by dextrose challenge by OGTT; format: functional
[2] = Plasma concentration in C57BL/6N mouse at 10 mg/kg, po administered for 60 mins followed by dextrose challenge during OGTT method; format: ADME, organism-based
Mus musculus [3] = assay: Antidiabetic activity in C57BL/6N mouse assessed as reduction in blood glucose AUC at 0.3 mg/kg, po administered for 60 mins followed by dextrose challenge by OGTT; format: functional; set-up: scale not given: the % may be the effect or the level left
[4] = Intrinsic clearance in human hepatocytes assessed per 10^6 cells at 1 uM after 30 to 120 mins by LC-MS/MS analysis; format: ADME, cell-based, Hepatocyte; conditions: read-out: CLH
[5] = Intrinsic clearance in rat hepatocytes assessed per 10^6 cells at 1 uM after 30 to 120 mins by LC-MS/MS analysis; format: ADME, cell-based, Hepatocyte; conditions: read-out: CLH
Mus musculus [6] = assay: Antidiabetic activity in po dosed C57BL/6N mouse assessed as reduction in blood glucose AUC after 60 mins followed by dextrose challenge by OGTT; format: functional, organism-based
Mus musculus [7] = assay: Ex vivo inhibition of DPP4 in C57BL/6N mouse blood at 3 to 10 mg/kg, po measured after 2 to 6 hrs; format: functional
[8] = Plasma concentration in C57BL/6N mouse at 1 mg/kg, po administered for 60 mins followed by dextrose challenge during OGTT method; format: ADME, organism-based
Mus musculus [9] = assay: Ex vivo inhibition of DPP4 in C57BL/6N mouse blood at 1 to 10 mg/kg, po measured after 24 hrs; format: functional, organism-based
[10] = Plasma concentration in C57BL/6N mouse at 0.3 mg/kg, po administered for 60 mins followed by dextrose challenge during OGTT method; format: ADME, organism-based
[11] = Intrinsic clearance in cynomolgus monkey hepatocytes assessed per 10^6 cells at 1 uM after 30 to 120 mins by LC-MS/MS analysis; format: ADME, cell-based, Macaca fascicularis, Hepatocyte; conditions: read-out: CLH
Mus musculus [12] = assay: Antidiabetic activity in C57BL/6N mouse assessed as reduction in blood glucose AUC at 10 mg/kg, po administered for 60 mins followed by dextrose challenge by OGTT; format: functional; set-up: scale not given: the % may be the effect or the level left
[13] = Intrinsic clearance in dog hepatocytes assessed per 10^6 cells at 1 uM after 30 to 120 mins by LC-MS/MS analysis; format: ADME, cell-based, Canis lupus familiaris, Hepatocyte; conditions: read-out: CLH
Mus musculus [14] = assay: Antidiabetic activity in C57BL/6N mouse assessed as reduction in blood glucose AUC at 1 mg/kg, po administered for 60 mins followed by dextrose challenge by OGTT; format: functional; set-up: scale not given: the % may be the effect or the level left
[15] = Plasma concentration in C57BL/6N mouse at 3 mg/kg, po administered for 60 mins followed by dextrose challenge during OGTT method; format: ADME, organism-based

Row | Compound | Activity (Mus musculus [1]) | concentration at 1 h [2] [nM] | Activity (Mus musculus [3]) [%] | hepatocyte CLint at 1 µM [4] [µL/min/1e6 cells] | hepatocyte CLint at 1 µM [5] [µL/min/1e6 cells] | Activity (Mus musculus [6]) | inhibition (INH) (Mus musculus [7]) [%] | concentration at 1 h [8] [nM] | inhibition (Mus musculus [9]) | concentration at 1 h [10] [nM] | hepatocyte CLint at 1 µM [11] [µL/min/1e6 cells] | Activity (Mus musculus [12]) [%] | hepatocyte CLint at 1 µM [13] [µL/min/1e6 cells] | Activity (Mus musculus [14]) [%] | concentration at 1 h [15] [nM]
1 | Cn1c(=O)cc(N2CCC[C@@H](N)C2)n(Cc2ccccc2C#N)c1=O | Active |  |  |  |  |  |  |  |  |  |  |  |  |  | 
2 | CN1C(=O)Cn2c1nc1nc(N3CCC[C@@H](N)C3)n(Cc3cc(F)ccc3C#N)c1c2=O | 64% | 235 | 38 | 0.1 | 0.3 | Dose-dependent effect | >80 | 10 | inactive | 2 | < 1 | 63 | < 1 | 52 | 70
